Measured values reported in patent US4647586A, “Pharmaceutical oil-in-water type micro-emulsion” (priority 1984, dated 1987).
“Also recorded” adds a separate entry of the source.

Tests used:
[1] = tested on: Adjuvant-induced polyarthritis; assay: Adjuvant-induced polyarthritis in rats, adjuvant-injected paw [Test 2]; format: in vivo, SD-strain female rats
Experimental: (a) Experimental animals: SD-strain famale rats 140-180g).
(§1) (b) Test drugs: The same as in A-1 [Test 2].
Rats were anesthetized with ether inhalation, and 0.6 mg of Mycobacterium butyricum suspended in 0.1 ml of white paraffin oil was immediately injected intradermally into the planter surface of the left hind paw of each rat via a 27 gauge needle fitted to a 0.5 ml syringe (day 0). On the 14th day after the adjuvant injection, arthritis-established rats selected by development of secondary lesions were used. Volumes of both hind paws in arthritis-established rats were measured by a plethysmometer (UGO BASILE), and the rats were randomized on the basis of the edema volume in the adjuvant-injected paw. Once daily, beginning on the 14th day up to the 18th day, drugs and vehicles were administered intravenously. Measurements of both paw volumes were performed every day from the 15th day up to the 18th day, and on the 21st day and the 24th day. The inhibition percent were calculated in accordance with the calculation formula as in [Test 1] of A-1.

[2] = Distribution to the tissue; details: 10 mg/kg tail vein, as 4-biphenylylacetic acid
Experimental: (a) Experimental animals: Wistar-strain male rats (body weight 60-220 g), 6 per group.
The rats were periodically killed, and the major organs were extracted. The concentration of the drug in the tissues were measured by the conventional HPLC method.

[3] = tested on: brewer's yeast-induced fever; assay: Effects on body temperature in pyretic rats (antipyretic activity); format: in vivo, SD-strain male rats; details: iv, 17 h, read-out: ED50 (dose reducing body temperature by at least 1.5° C. in 50% of the rats)
Experimental: (a) Experimental animals SD-strain male rats (120-185 g).
as §1
Male Sprague-Dawley rats, weighing 120-185 g, were injected subcutaneously in the nape of the neck with 2 ml of a 20% suspension of dried brewers yeast in physiological saline. Drugs and vehicles were administered intravenously 17 hours after treatment of yeast suspension. Rectal temperature was recorded with a thermistor type thermometer (Natsume Seisakusho, BMA-77 Type) just prior to drug administration and at 1/2, 1, 2 and 4 hours after drug administration.

[4] = Toxicity test, single tail vein administration, 3 days observation; format: in vivo, Charles River-strain SD male rats; details: rat, in vivo, iv; read-out: Doses with no change in general symptoms and autopsy
Experimental: (§2) Charles River-strain SD male rats (6 weeks old; body weight 160-170 g), 5 per group, were used. […] The doses were 50, 100, 200 and 400 mg/kg. As a control, an aqueous solution of sodium 4-biphenylylacetate was administered.

[5] = tested on: Charles River-strain SD male rats; assay: as above; format: in vivo
Experimental: as §2

[6] = tested on: Carrageenin-induced paw edema; assay: Carrageenin-induced paw edema in rats [Test 2]; format: in vivo, SD-strain male rats
Experimental: (a) Experimental animals: SD-strain male rats (120-180 g).
A micro-emulsion containing ethyl 4-biphenylylacetate prepared as in Examples 11, 12, 13 and 14 given hereinafter was administered at a dose of 5 ml per kg of the animals. Venolipid® (Morishita Pharmaceutical Co., Ltd.) was used as a vehicle control. As control drugs, a solution or suspension of ethyl 4-biphenylylacetate in physiological saline containing 0.5% Cremophor EL® (Sigma Chemical Company, a solubilizing agent), 0.2% of polyethylene glycol 400 and 10% of dimethyl sulfoxide, a physiological saline solution of sodium 4-biphenylylacetate and a physiological saline solution of Aspirin DL-lysine [Venopirin®, Green Cross Co.] were used. As the vehicle control of the control drugs, the above solvents were used.
A 1% carrageenin solution in physiological saline was injected subcutaneously in an amount of 0.05 ml into the planter surface of the left hind paw of each rat via a 25 gauge needle fitted to a 0.25 ml syringe. One hour after carrageenin injection, the rats were randomized on the basis of the edema volume, and intravenous administration of the drugs and vehicles followed immediately. The volume of the left hind paw was measured by a plethysmometer (Ugo Basile) prior to the injection of the carrageenin solution and at 2, 3, 4, 5 and 6 hours after the carrageenin injection. As the volume of edema, an increase in the paw volume was taken.
The inhibition percents were calculated in accordance with the same calculation formula as in Test 1.

[7] = tested on: abnormal 3-legged gait (brewers yeast-inflamed paw); assay: Reversal of abnormal 3-legged gait in rats (analgesic activity); format: in vivo, SD-strain male rats; details: Rattus norvegicus, iv, read-out: ED50 (dose causing at least 50% reversal of gait score in 50% of the rats)
Experimental: (a) Experimental animals: SD-strain male rats (120-165 g).
as §1
A 40% suspension of dried brewers yeast in physiological saline was injected (0.25 ml/rat) subcutaneously into the planter surface of the left hind paw of each rat. Three hours later, the walking gait on a wire mesh platform was assessed for each rat.
0 = Normal gait in the presence of a severely
0.5 = As above, with intermittent mild limping.
1.0 = Constant limping, but continuous use of
1.5 = Limping with occasional 3-legged gait
2.0 = Continous 3-Legged gait and/or only the
Any rat not showing a gait score of 2 was eliminated from this test. Drugs and vehicles were then administered intravenously. Measurements of the gait were made at 1, 2, 3 and 4 hours after drug administration.

O=C([O-])Cc1ccc(-c2ccccc2)cc1.[Na+]
Inhibition (%) ([1]; 1.25 mg/kg/day i.v. as 4-biphenylylacetic acid, day 15): -1.8%
Inhibition (%) ([1]; 1.25 mg/kg/day i.v. as 4-biphenylylacetic acid, day 16): 1.2%
Inhibition (%) ([1]; 1.25 mg/kg/day i.v. as 4-biphenylylacetic acid, day 17): 7.9%
Inhibition (%) ([1]; 1.25 mg/kg/day i.v. as 4-biphenylylacetic acid, day 18): 3.9%
Inhibition (%) ([1]; 1.25 mg/kg/day i.v. as 4-biphenylylacetic acid, day 21): -7.5%
Inhibition (%) ([1]; 1.25 mg/kg/day i.v. as 4-biphenylylacetic acid, day 24): -14.1%
Inhibition (%) ([1]; 2.5 mg/kg/day i.v. as 4-biphenylylacetic acid, day 15): -4.2%
Inhibition (%) ([1]; 2.5 mg/kg/day i.v. as 4-biphenylylacetic acid, day 16): 1.5%
Inhibition (%) ([1]; 2.5 mg/kg/day i.v. as 4-biphenylylacetic acid, day 17): 1.9%
Inhibition (%) ([1]; 2.5 mg/kg/day i.v. as 4-biphenylylacetic acid, day 18): -3.9%
Inhibition (%) ([1]; 2.5 mg/kg/day i.v. as 4-biphenylylacetic acid, day 21): -15.7%
Inhibition (%) ([1]; 2.5 mg/kg/day i.v. as 4-biphenylylacetic acid, day 24): -29.7%
Inhibition (%) ([1]; 5.0 mg/kg/day i.v. as 4-biphenylylacetic acid, day 15): 7.3%
Inhibition (%) ([1]; 5.0 mg/kg/day i.v. as 4-biphenylylacetic acid, day 16): 12.9%
Inhibition (%) ([1]; 5.0 mg/kg/day i.v. as 4-biphenylylacetic acid, day 17): 17.9%
Inhibition (%) ([1]; 5.0 mg/kg/day i.v. as 4-biphenylylacetic acid, day 18): 15.6%
Inhibition (%) ([1]; 5.0 mg/kg/day i.v. as 4-biphenylylacetic acid, day 21): 9.2%
Inhibition (%) ([1]; 5.0 mg/kg/day i.v. as 4-biphenylylacetic acid, day 24): 2.8%
Inhibition (%) ([1]; 10.0 mg/kg/day i.v. as 4-biphenylylacetic acid, day 15): 8.2%
Inhibition (%) ([1]; 10.0 mg/kg/day i.v. as 4-biphenylylacetic acid, day 16): 9.5%
Inhibition (%) ([1]; 10.0 mg/kg/day i.v. as 4-biphenylylacetic acid, day 17): 17.9%
Inhibition (%) ([1]; 10.0 mg/kg/day i.v. as 4-biphenylylacetic acid, day 18): 16.6%
Inhibition (%) ([1]; 10.0 mg/kg/day i.v. as 4-biphenylylacetic acid, day 21): 1.3%
Inhibition (%) ([1]; 10.0 mg/kg/day i.v. as 4-biphenylylacetic acid, day 24): -0.7%
ED20 ([1]; Rattus norvegicus, iv, read-out: ED20 (dose required to cause a 20% inhibition of adjuvant-injected paw volume)): 14.3 mg/kg
Tissue concentration at 30 seconds after administration [2]: concentrations above those at which they showed a pharmacological activity
ED50 [3]: 2.6 mg/kg
NOAEL at 72 h [4]: ≥ 50 mg/kg
Findings: autopsy ([5]; 50 mg/kg i.v.): No change
Findings: general symptoms ([5]; 50 mg/kg i.v.): No change
Number of the dead ([5]; 50 mg/kg i.v. as 4-biphenylylacetic acid): 0/5
Findings: general symptoms (spontaneous motion) ([5]; 100 mg/kg i.v.): motion decreased
Number of the dead ([5]; 100 mg/kg i.v. as 4-biphenylylacetic acid): 0/5
Findings: general symptoms ([5]; 200 mg/kg i.v.): tarry feces
Number of the dead ([5]; 200 mg/kg i.v. as 4-biphenylylacetic acid): 3/5
Number of the dead ([5]; 400 mg/kg i.v. as 4-biphenylylacetic acid): 3/5
Findings: autopsy ([5]; at least 100 mg/kg i.v.): Peptic ulcer occurred; also recorded: intestinal adherence
Findings: general symptoms ([5]; at least 100 mg/kg i.v.): Body weight increase inhibition
Findings: general symptoms ([5]; at least 200 mg/kg i.v.): pallor
Doses at which changes occurred ([5]; rat, in vivo): more than 100 mg/kg
Inhibition (%) ([6]; 1.25 mg/kg i.v. as 4-biphenylylacetic acid, 2 h after carrageenin): 6.6%
Inhibition (%) ([6]; 1.25 mg/kg i.v. as 4-biphenylylacetic acid, 3 h after carrageenin): 0%
Inhibition (%) ([6]; 1.25 mg/kg i.v. as 4-biphenylylacetic acid, 4 h after carrageenin): 8.5%
Inhibition (%) ([6]; 1.25 mg/kg i.v. as 4-biphenylylacetic acid, 5 h after carrageenin): 5.2%
Inhibition (%) ([6]; 1.25 mg/kg i.v. as 4-biphenylylacetic acid, 6 h after carrageenin): 6.1%
Inhibition (%) ([6]; 2.5 mg/kg i.v. as 4-biphenylylacetic acid, 2 h after carrageenin): 19,7%
Inhibition (%) ([6]; 2.5 mg/kg i.v. as 4-biphenylylacetic acid, 3 h after carrageenin): 11.7%
Inhibition (%) ([6]; 2.5 mg/kg i.v. as 4-biphenylylacetic acid, 4 h after carrageenin): 18.6%
Inhibition (%) ([6]; 2.5 mg/kg i.v. as 4-biphenylylacetic acid, 5 h after carrageenin): 20.7%
Inhibition (%) ([6]; 2.5 mg/kg i.v. as 4-biphenylylacetic acid, 6 h after carrageenin): 10.2%
Inhibition (%) ([6]; 5.0 mg/kg i.v. as 4-biphenylylacetic acid, 2 h after carrageenin): 9.8%
Inhibition (%) ([6]; 5.0 mg/kg i.v. as 4-biphenylylacetic acid, 3 h after carrageenin): 6.6%
Inhibition (%) ([6]; 5.0 mg/kg i.v. as 4-biphenylylacetic acid, 4 h after carrageenin): 20.3%
Inhibition (%) ([6]; 5.0 mg/kg i.v. as 4-biphenylylacetic acid, 5 h after carrageenin): 19.0%
Inhibition (%) ([6]; 5.0 mg/kg i.v. as 4-biphenylylacetic acid, 6 h after carrageenin): 30.6%
Inhibition (%) ([6]; 10.0 mg/kg i.v. as 4-biphenylylacetic acid, 2 h after carrageenin): 23.0%
Inhibition (%) ([6]; 10.0 mg/kg i.v. as 4-biphenylylacetic acid, 3 h after carrageenin): 28.3%
Inhibition (%) ([6]; 10.0 mg/kg i.v. as 4-biphenylylacetic acid, 4 h after carrageenin): 35.6%
Inhibition (%) ([6]; 10.0 mg/kg i.v. as 4-biphenylylacetic acid, 5 h after carrageenin): 29.3%
Inhibition (%) ([6]; 10.0 mg/kg i.v. as 4-biphenylylacetic acid, 6 h after carrageenin): 30.6%
ED30 ([6]; Rattus norvegicus, iv, read-out: ED30 (dose required to cause a 30% inhibition of edema volume)): 10.5 mg/kg
ED50 [7]: 7.1 mg/kg
